# Source: patent US5405849A, “Angiotensin II receptor blocking 2,3,6 substituted quinazolinones” (American Cyanamid Company, priority 1993, dated 1995)
# System: angiotensin II (AII) vasopressor response
# Experiment: AII challenge: antagonism of the vasopressor response of angiotensin II in conscious Okamoto-Aoki SHR
# Assay type: in vivo, rat (Okamoto-Aoki SHR)
# Settings: for inhibition in vivo at 1 mg/kg / inhibition in vivo at 2 mg/kg / inhibition in vivo at 3 mg/kg / inhibition in vivo at 5 mg/kg: Rattus norvegicus; for inhibition in vivo at 1 mg/kg / inhibition in vivo at 2 mg/kg / inhibition in vivo at 3 mg/kg: iv; for inhibition in vivo at 5 mg/kg: po
# Excerpt: Conscious Male Okamoto-Aoki SHR, 16-20 weeks old, weighing approximately 330 g are purchased from Charles River Labs (Wilmington, Mass.). Conscious rats are restrained in a supine position with elastic tape. The area at the base of the tail is locally anesthetized by subcutaneous infiltration with 2% procaine. The ventral caudal artery and vein are isolated, and a cannula made of polyethylene (PE) 10-20 tubing (fused together by heat) is passed into the lower abdominal aorta and vena cava, respectively. The cannula is secured, heparinized (1,000 I.U./ml), sealed and the wound is closed. The animals are placed in plastic restraining cages in an upright position. The cannula is attached to a Statham P23Db pressure transducer, and pulsatile blood pressure is recorded to 10-15 minutes with a Gould Brush recorder.
# Angiotensin II (human sequence, Sigma Chem. Co., St. Louis, Mo.) of 0.05 and 0.1 ug/kg i.v. is injected into all rats (predosing response). Then a test compound, vehicle or a known angiotensin II antagonist is administered i.v., i.p. or orally to each set of rats. […] The vasopressor response of angiotensin II is measured for the increase in systolic blood pressure in mmHg. The percentage of antagonism or blockade of the vasopressor response of angiotensin II by a compound is calculated using the vasopressor response (increase in systolic blood pressure) of angiotensin II of each rat predosing the compound as 100%.
# [1] = 1 mg/kg iv, AII .1 ug/kg, 30 min
# [2] = 0.5 h, 1 mg/kg iv, AII .05 ug/kg, 30 min
# [3] = 0.5 h, 1 mg/kg iv, AII .1 ug/kg, 30 min
# [4] = 2 h, 2 mg/kg iv, AII .05 ug/kg, 120 min
# [5] = 2 h, 2 mg/kg iv, AII .1 ug/kg, 120 min
# [6] = 2.5 h, 2 mg/kg iv, AII .05 ug/kg, 150 min
# [7] = 2.5 h, 2 mg/kg iv, AII .1 ug/kg, 150 min
# [8] = 3 h, 5 mg/kg oral, AII .05 ug/kg, 180 min
# [9] = 3 h, 5 mg/kg oral, AII .1 ug/kg, 180 min
compound,measurement,setting,value
"CCCCc1nc2ccc(C(C)(C)OC)cc2c(=O)n1Cc1ccc(-c2ccccc2-c2nnn[nH]2)cc1 [Example 57, 2-Butyl-6-(1-methoxy-1-methylethyl)-3-[[2'-(1H-tetrazol-5-yl)[1,1'-biphenyl]-4-yl]methyl]-4(3H)-quinazolinone]",Response change (systolic BP increase to AII),"1 mg/kg iv, AII .025 ug/kg, 15 min",15 mmHg
same,Response change (systolic BP increase to AII),"1 mg/kg iv, AII .025 ug/kg, 30 min",15 mmHg
same,Response change (systolic BP increase to AII),"1 mg/kg iv, AII .025 ug/kg, 60 min",5 mmHg
same,Response change (systolic BP increase to AII),"1 mg/kg iv, AII .05 ug/kg, 15 min",5 mmHg
same,Response change (systolic BP increase to AII),"1 mg/kg iv, AII .05 ug/kg, 30 min",10 mmHg
same,Response change (systolic BP increase to AII),"1 mg/kg iv, AII .05 ug/kg, 60 min",15 mmHg
same,Response change (systolic BP increase to AII),"1 mg/kg iv, AII .1 ug/kg, 15 min",25 mmHg
same,Response change (systolic BP increase to AII),[1],35 mmHg
same,Response change (systolic BP increase to AII),"1 mg/kg iv, AII .1 ug/kg, 60 min",35 mmHg
same,Response change (systolic BP increase to AII),"2 mg/kg iv, AII .025 ug/kg, 30 min",0 mmHg
same,Response change (systolic BP increase to AII),"2 mg/kg iv, AII .025 ug/kg, 120 min",60 mmHg
same,Response change (systolic BP increase to AII),"2 mg/kg iv, AII .025 ug/kg, 150 min",0 mmHg
same,Response change (systolic BP increase to AII),"2 mg/kg iv, AII .05 ug/kg, 30 min",0 mmHg
same,Response change (systolic BP increase to AII),"2 mg/kg iv, AII .05 ug/kg, 120 min",30 mmHg
same,Response change (systolic BP increase to AII),"2 mg/kg iv, AII .05 ug/kg, 150 min",0 mmHg
same,Response change (systolic BP increase to AII),"2 mg/kg iv, AII .1 ug/kg, 30 min",0 mmHg
same,Response change (systolic BP increase to AII),"2 mg/kg iv, AII .1 ug/kg, 120 min",20 mmHg
same,Response change (systolic BP increase to AII),"3 mg/kg iv, AII .025 ug/kg, 150 min",15 mmHg
same,Response change (systolic BP increase to AII),"3 mg/kg iv, AII .05 ug/kg, 150 min",15 mmHg
same,Response change (systolic BP increase to AII),"3 mg/kg iv, AII .1 ug/kg, 150 min",25 mmHg
same,Response change (systolic BP increase to AII),"5 mg/kg oral, AII .025 ug/kg, 240 min",0 mmHg
same,inhibition in vivo at 1 mg/kg,"0.25 h, 1 mg/kg iv, AII .025 ug/kg, 15 min",50%
same,inhibition in vivo at 1 mg/kg,"0.25 h, 1 mg/kg iv, AII .05 ug/kg, 15 min",89%
same,inhibition in vivo at 1 mg/kg,"0.25 h, 1 mg/kg iv, AII .1 ug/kg, 15 min",48%
same,inhibition in vivo at 1 mg/kg,"0.5 h, 1 mg/kg iv, AII .025 ug/kg, 30 min",50%
same,inhibition in vivo at 1 mg/kg,[2],78%
same,inhibition in vivo at 1 mg/kg,[3],27%
same,inhibition in vivo at 2 mg/kg,"0.5 h, 2 mg/kg iv, AII .025 ug/kg, 30 min",100%
same,inhibition in vivo at 2 mg/kg,"0.5 h, 2 mg/kg iv, AII .05 ug/kg, 30 min",100%
same,inhibition in vivo at 2 mg/kg,"0.5 h, 2 mg/kg iv, AII .1 ug/kg, 30 min",100%
same,inhibition in vivo at 1 mg/kg,"1 h, 1 mg/kg iv, AII .025 ug/kg, 60 min",83%
same,inhibition in vivo at 1 mg/kg,"1 h, 1 mg/kg iv, AII .05 ug/kg, 60 min",67%
same,inhibition in vivo at 1 mg/kg,"1 h, 1 mg/kg iv, AII .1 ug/kg, 60 min",27%
same,inhibition in vivo at 2 mg/kg,"2 h, 2 mg/kg iv, AII .025 ug/kg, 120 min",100%
same,inhibition in vivo at 2 mg/kg,[4],33%
same,inhibition in vivo at 2 mg/kg,[5],58%
same,inhibition in vivo at 2 mg/kg,"2.5 h, 2 mg/kg iv, AII .025 ug/kg, 150 min",100%
same,inhibition in vivo at 2 mg/kg,[6],100%
same,inhibition in vivo at 2 mg/kg,[7],82%
same,inhibition in vivo at 3 mg/kg,"2.5 h, 3 mg/kg iv, AII .025 ug/kg, 150 min",50%
same,inhibition in vivo at 3 mg/kg,"2.5 h, 3 mg/kg iv, AII .05 ug/kg, 150 min",67%
same,inhibition in vivo at 3 mg/kg,"2.5 h, 3 mg/kg iv, AII .1 ug/kg, 150 min",48%
same,inhibition in vivo at 5 mg/kg,"0.5 h, 5 mg/kg oral, AII .025 ug/kg, 30 min",94%
same,inhibition in vivo at 5 mg/kg,"1 h, 5 mg/kg oral, AII .025 ug/kg, 60 min",89%
same,inhibition in vivo at 5 mg/kg,"1.5 h, 5 mg/kg oral, AII .05 ug/kg, 90 min",61%
same,inhibition in vivo at 5 mg/kg,"1.5 h, 5 mg/kg oral, AII .1 ug/kg, 90 min",36%
same,inhibition in vivo at 5 mg/kg,"2 h, 5 mg/kg oral, AII .025 ug/kg, 120 min",94%
same,inhibition in vivo at 5 mg/kg,"2 h, 5 mg/kg oral, AII .1 ug/kg, 120 min",40%
same,inhibition in vivo at 5 mg/kg,"3 h, 5 mg/kg oral, AII .025 ug/kg, 180 min",72%
same,inhibition in vivo at 5 mg/kg,[8],68%
same,inhibition in vivo at 5 mg/kg,[9],56%
same,inhibition in vivo at 5 mg/kg,"4 h, 5 mg/kg oral, AII .025 ug/kg, 240 min",100%
same,inhibition in vivo at 5 mg/kg,"4 h, 5 mg/kg oral, AII .05 ug/kg, 240 min",49%
same,inhibition in vivo at 5 mg/kg,"4 h, 5 mg/kg oral, AII .1 ug/kg, 240 min",48%
CCCCc1nc2ccc(C(O)c3ccccc3)cc2c(=O)n1Cc1ccc(-c2ccccc2-c2nnn[nH]2)cc1 (stereo not drawn) [Example 54],Response change (systolic BP increase to AII),[1],35 mmHg
same,Response change (systolic BP increase to AII),"2 mg/kg iv, AII .05 ug/kg, 180 min",17 mmHg
same,Response change (systolic BP increase to AII),"5 mg/kg oral, AII .05 ug/kg, 180 min",25 mmHg
same,Response change (systolic BP increase to AII),"5 mg/kg oral, AII .1 ug/kg, 180 min",48 mmHg
same,inhibition in vivo at 1 mg/kg,[2],47%
same,inhibition in vivo at 1 mg/kg,[3],30%
same,inhibition in vivo at 1 mg/kg,"0.75 h, 1 mg/kg iv, AII .05 ug/kg, 45 min",75%
same,inhibition in vivo at 1 mg/kg,"0.75 h, 1 mg/kg iv, AII .1 ug/kg, 45 min",28%
same,inhibition in vivo at 1 mg/kg,"1.5 h, 1 mg/kg iv, AII .05 ug/kg, 90 min",49%
same,inhibition in vivo at 1 mg/kg,"1.5 h, 1 mg/kg iv, AII .1 ug/kg, 90 min",34%
same,inhibition in vivo at 2 mg/kg,[4],85%
same,inhibition in vivo at 2 mg/kg,[5],64%
same,inhibition in vivo at 2 mg/kg,[6],67%
same,inhibition in vivo at 2 mg/kg,[7],54%
same,inhibition in vivo at 2 mg/kg,"3 h, 2 mg/kg iv, AII .05 ug/kg, 180 min",69%
same,inhibition in vivo at 2 mg/kg,"3 h, 2 mg/kg iv, AII .1 ug/kg, 180 min",50%
same,inhibition in vivo at 5 mg/kg,[8],55%
same,inhibition in vivo at 5 mg/kg,[9],26%
